Values of other authors in patent US10045960B2, “Coating composition and medical device” (TERUMO KABUSHIKI KAISHA, priority 2012, dated 2018).

Conditions: hydropathy index according to Kyte and Doolittle, J. Mol. Biol., 157, 105-132 (1982)

| SMILES | H.I. (hydropathy index) |
| --- | --- |
| CSCC[C@H](N)C(=O)O [Methionine] | 1.9 |
| C[C@@H](O)[C@H](N)C(=O)O [Threonine] | −0.7 |
| N[C@@H](Cc1c[nH]cn1)C(=O)O [Histidine] | −3.2 |
| N=C(N)NCCC[C@H](N)C(=O)O [Arginine] | −4.5 |
| N[C@@H](Cc1c[nH]c2ccccc12)C(=O)O [Tryptophan] | −0.9 |
| CC(C)[C@H](N)C(=O)O [Valine] | 4.2 |
| N[C@@H](CS)C(=O)O [Cysteine] | 2.5 |
| CC[C@H](C)[C@H](N)C(=O)O [Isoleucine] | 4.5 |
| N[C@@H](Cc1ccc(O)cc1)C(=O)O [Tyrosine] | −1.3 |
| C[C@H](N)C(=O)O [Alanine] | 1.8 |
| N[C@@H](Cc1ccccc1)C(=O)O [Phenylalanine] | 2.8 |
| N[C@@H](CO)C(=O)O [Serine] | −0.8 |
| NC(=O)C[C@H](N)C(=O)O [Asparagine] | −3.5 |
| N[C@@H](CC(=O)O)C(=O)O [Aspartic acid] | −3.5 |
| N[C@@H](CCC(=O)O)C(=O)O [Glutamic acid] | −3.5 |
| NCCCC[C@H](N)C(=O)O [Lysine] | −3.9 |
